We go through 33 molecules from US6638973B2, “Taxane formulations” (FSU Research Foundation, Inc., priority 2000, dated 2003).

Molecules are shown by their SMILES.

The subject of one experiment is HCT116 cells. As to the kind of experiment: In vitro cytotoxicity measured by the cell colony formation assay. The class given is cell-based. The settings on record: HCT116 cells, 72 h incubation with drug, colonies counted after 7 days; ID50 = drug concentration producing 50% inhibition of colony formation; read-out: IN VITRO ID 50 (nm) HCT116. An outline of the steps: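 Colony-forming survival was scored 7 days after a 72 h, 37 °C compound exposure followed by washout into fresh medium.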
With `CCOC(=O)O[C@H]1C(=O)[C@@]2(C)C([C@H](OC(=O)c3ccccc3)[C@]3(O)C[C@H](OC(=O)[C@H](O)[C@@H](NC(=O)c4ccncc4)c4cccs4)C(C)=C1C3(C)C)[C@]1(OC(C)=O)CO[C@@H]1C[C@@H]2O` (stereo partly drawn) [Compound 3393], the IC50 is more than 50 nM.

Regarding `CCOC(=O)O[C@H]1C(=O)[C@@]2(C)C([C@H](OC(=O)c3ccccc3)[C@]3(O)C[C@H](OC(=O)[C@H](O)[C@@H](NC(=O)c4ccccn4)c4cccs4)C(C)=C1C3(C)C)[C@]1(OC(C)=O)CO[C@@H]1C[C@@H]2O` (stereo partly drawn) [Compound 3433], the IC50 was determined as 22.3 nM.

Staying with this experiment, now noted: HCT116 colony formation; 72 h drug incubation, colonies counted after 7 days; Example 5, C-7 ester/C-10 hydroxy taxanes; read-out: IN VITRO ID 50 (nm) HCT116.
On to `CCCC(=O)N[C@@H](c1cccs1)[C@@H](O)C(=O)O[C@H]1C[C@@]2(O)[C@@H](OC(=O)c3ccccc3)C3[C@](C)(C(=O)[C@H](O)C(=C1C)C2(C)C)[C@@H](OC(=O)CC)C[C@H]1OC[C@@]31OC(C)=O` (stereo partly drawn) [Compound 3327], for which the IC50 is less than 10 nM.

For `CCC(=O)O[C@H]1C[C@H]2OC[C@@]2(OC(C)=O)C2[C@H](OC(=O)c3ccccc3)[C@]3(O)C[C@H](OC(=O)[C@H](O)[C@@H](NC(=O)c4ccccc4)c4ccsc4)C(C)=C([C@@H](O)C(=O)[C@@]21C)C3(C)C` (stereo partly drawn) [Compound 3388], the IC50 is less than 10 nM.

Take `CCC(=O)O[C@H]1C[C@H]2OC[C@@]2(OC(C)=O)C2[C@H](OC(=O)c3ccccc3)[C@]3(O)C[C@H](OC(=O)[C@H](O)[C@@H](NC(=O)OC(C)C)c4ccco4)C(C)=C([C@@H](O)C(=O)[C@@]21C)C3(C)C` (stereo partly drawn) [Compound 3444]: the IC50 is less than 1 nM.

With `CCC(=O)O[C@H]1C[C@H]2OC[C@@]2(OC(C)=O)C2[C@H](OC(=O)c3ccccc3)[C@]3(O)C[C@H](OC(=O)[C@H](O)[C@@H](NC(=O)c4cccs4)c4cccs4)C(C)=C([C@@H](O)C(=O)[C@@]21C)C3(C)C` (stereo partly drawn) [Compound 3479], the IC50 is less than 1 nM.

For the molecule `C/C=C/C(=O)N[C@@H](c1cccs1)[C@@H](O)C(=O)O[C@H]1C[C@@]2(O)[C@@H](OC(=O)c3ccccc3)C3[C@](C)(C(=O)[C@H](O)C(=C1C)C2(C)C)[C@@H](OC(=O)CC)C[C@H]1OC[C@@]31OC(C)=O` (stereo partly drawn) [Compound 3560], the IC50 is less than 1 nM.

As for `CCOC(=O)N[C@@H](c1ccco1)[C@@H](O)C(=O)O[C@H]1C[C@@]2(O)[C@@H](OC(=O)c3ccccc3)C3[C@](C)(C(=O)[C@H](O)C(=C1C)C2(C)C)[C@@H](OC(=O)CC)C[C@H]1OC[C@@]31OC(C)=O` (stereo partly drawn) [Compound 3611], the IC50 was less than 1 nM.

For `CCC(=O)O[C@H]1C[C@H]2OC[C@@]2(OC(C)=O)C2[C@H](OC(=O)c3ccccc3)[C@]3(O)C[C@H](OC(=O)[C@H](O)[C@@H](NC(=O)c4ccco4)c4ccco4)C(C)=C([C@@H](O)C(=O)[C@@]21C)C3(C)C` (stereo partly drawn) [Compound 3629], the IC50 is less than 1 nM.

On to `CCC(=O)O[C@H]1C[C@H]2OC[C@@]2(OC(C)=O)C2[C@H](OC(=O)c3ccccc3)[C@]3(O)C[C@H](OC(=O)[C@H](O)[C@@H](NC(=O)c4cccs4)c4ccco4)C(C)=C([C@@H](O)C(=O)[C@@]21C)C3(C)C` (stereo partly drawn) [Compound 3632], for which the IC50 is less than 1 nM.

For the molecule `C/C=C/C(=O)N[C@@H](c1ccco1)[C@@H](O)C(=O)O[C@H]1C[C@@]2(O)[C@@H](OC(=O)c3ccccc3)C3[C@](C)(C(=O)[C@H](O)C(=C1C)C2(C)C)[C@@H](OC(=O)CC)C[C@H]1OC[C@@]31OC(C)=O` (stereo partly drawn) [Compound 3708], the IC50 was less than 1 nM.

Staying with this experiment, now noted: HCT116 colony formation; 72 h drug incubation, colonies counted after 7 days; Example 10, C-10 ester/C-7 hydroxy taxanes; read-out: IN VITRO ID 50 (nm) HCT116.
Regarding `CCCC(=O)N[C@@H](c1cccs1)[C@@H](O)C(=O)O[C@H]1C[C@@]2(O)[C@@H](OC(=O)c3ccccc3)C3[C@](C)(C(=O)[C@H](OC(=O)CCC)C(=C1C)C2(C)C)[C@@H](O)C[C@H]1OC[C@@]31OC(C)=O` (stereo partly drawn) [Compound 3314], the IC50 was less than 1 nM.

For `CCCC(=O)O[C@H]1C(=O)[C@@]2(C)C([C@H](OC(=O)c3ccccc3)[C@]3(O)C[C@H](OC(=O)[C@H](O)[C@@H](NC(=O)c4ccco4)c4cccs4)C(C)=C1C3(C)C)[C@]1(OC(C)=O)CO[C@@H]1C[C@@H]2O` (stereo partly drawn) [Compound 3352], the IC50 was less than 1 nM.

As to `CCC(=O)O[C@H]1C(=O)[C@@]2(C)C([C@H](OC(=O)c3ccccc3)[C@]3(O)C[C@H](OC(=O)[C@H](O)[C@@H](NC(=O)OC(C)C)c4cccs4)C(C)=C1C3(C)C)[C@]1(OC(C)=O)CO[C@@H]1C[C@@H]2O` (stereo partly drawn) [Compound 3361], the IC50 was less than 1 nM.

`CCOC(=O)N[C@@H](c1cccs1)[C@@H](O)C(=O)O[C@H]1C[C@@]2(O)[C@@H](OC(=O)c3ccccc3)C3[C@](C)(C(=O)[C@H](OC(=O)CC)C(=C1C)C2(C)C)[C@@H](O)C[C@H]1OC[C@@]31OC(C)=O` (stereo partly drawn) [Compound 3370]: the IC50 is less than 1 nM.

On to `CCCC(=O)O[C@H]1C(=O)[C@@]2(C)C([C@H](OC(=O)c3ccccc3)[C@]3(O)C[C@H](OC(=O)[C@H](O)[C@@H](NC(=O)c4cccs4)c4cccs4)C(C)=C1C3(C)C)[C@]1(OC(C)=O)CO[C@@H]1C[C@@H]2O` (stereo partly drawn) [Compound 3408], for which the IC50 is less than 1 nM.

Turning to `CCCC(=O)O[C@H]1C(=O)[C@@]2(C)C([C@H](OC(=O)c3ccccc3)[C@]3(O)C[C@H](OC(=O)[C@H](O)[C@@H](NC(=O)OC(C)C)c4ccco4)C(C)=C1C3(C)C)[C@]1(OC(C)=O)CO[C@@H]1C[C@@H]2O` (stereo partly drawn) [Compound 3417], the IC50 is less than 1 nM.

`CCC(=O)O[C@H]1C(=O)[C@@]2(C)C([C@H](OC(=O)c3ccccc3)[C@]3(O)C[C@H](OC(=O)[C@H](O)[C@@H](NC(=O)c4cccs4)c4cccs4)C(C)=C1C3(C)C)[C@]1(OC(C)=O)CO[C@@H]1C[C@@H]2O` (stereo partly drawn) [Compound 3425]: the IC50 was less than 1 nM.

Regarding `CC(=O)O[C@@]12CO[C@@H]1C[C@H](O)[C@@]1(C)C(=O)[C@H](OC(=O)C3CC3)C3=C(C)[C@@H](OC(=O)[C@H](O)[C@@H](NC(=O)c4cccs4)c4cccs4)C[C@@](O)([C@@H](OC(=O)c4ccccc4)C12)C3(C)C` (stereo partly drawn) [Compound 3453], the IC50 is less than 1 nM.

`CCCC(=O)O[C@H]1C(=O)[C@@]2(C)C([C@H](OC(=O)c3ccccc3)[C@]3(O)C[C@H](OC(=O)[C@H](O)[C@@H](NC(=O)c4ccccc4)C4CC4)C(C)=C1C3(C)C)[C@]1(OC(C)=O)CO[C@@H]1C[C@@H]2O` (stereo partly drawn) [Compound 3482]: the IC50 was less than 1 nM.

As to `C/C=C/C(=O)N[C@@H](c1cccs1)[C@@H](O)C(=O)O[C@H]1C[C@@]2(O)[C@@H](OC(=O)c3ccccc3)C3[C@](C)(C(=O)[C@H](OC(=O)CC)C(=C1C)C2(C)C)[C@@H](O)C[C@H]1OC[C@@]31OC(C)=O` (stereo partly drawn) [Compound 3494], the IC50 is less than 1 nM.

As for `C/C=C/C(=O)N[C@@H](c1cccs1)[C@@H](O)C(=O)O[C@H]1C[C@@]2(O)[C@@H](OC(=O)c3ccccc3)C3[C@](C)(C(=O)[C@H](OC(=O)C4CC4)C(=C1C)C2(C)C)[C@@H](O)C[C@H]1OC[C@@]31OC(C)=O` (stereo partly drawn) [Compound 3513], the IC50 was less than 1 nM.

Turning to `CCC(=O)O[C@H]1C(=O)[C@@]2(C)C([C@H](OC(=O)c3ccccc3)[C@]3(O)C[C@H](OC(=O)[C@H](O)[C@@H](NC(=O)OC(C)C)c4ccco4)C(C)=C1C3(C)C)[C@]1(OC(C)=O)CO[C@@H]1C[C@@H]2O` (stereo partly drawn) [Compound 3522], the IC50 is less than 1 nM.

With `CCOC(=O)N[C@@H](c1ccco1)[C@@H](O)C(=O)O[C@H]1C[C@@]2(O)[C@@H](OC(=O)c3ccccc3)C3[C@](C)(C(=O)[C@H](OC(=O)CC)C(=C1C)C2(C)C)[C@@H](O)C[C@H]1OC[C@@]31OC(C)=O` (stereo partly drawn) [Compound 3535], the IC50 was less than 1 nM.

`C/C=C/C(=O)N[C@@H](c1cccs1)[C@@H](O)C(=O)O[C@H]1C[C@@]2(O)[C@@H](OC(=O)c3ccccc3)C3[C@](C)(C(=O)[C@H](OC(=O)CCC)C(=C1C)C2(C)C)[C@@H](O)C[C@H]1OC[C@@]31OC(C)=O` (stereo partly drawn) [Compound 3595]: the IC50 is less than 1 nM.

Take `CCC(=O)O[C@H]1C(=O)[C@@]2(C)C([C@H](OC(=O)c3ccccc3)[C@]3(O)C[C@H](OC(=O)[C@H](O)[C@@H](NC(=O)c4cccs4)c4ccco4)C(C)=C1C3(C)C)[C@]1(OC(C)=O)CO[C@@H]1C[C@@H]2O` (stereo partly drawn) [Compound 3644]: the IC50 is less than 1 nM.

In the case of `CCCC(=O)O[C@H]1C(=O)[C@@]2(C)C([C@H](OC(=O)c3ccccc3)[C@]3(O)C[C@H](OC(=O)[C@H](O)[C@@H](NC(=O)c4cccs4)c4ccco4)C(C)=C1C3(C)C)[C@]1(OC(C)=O)CO[C@@H]1C[C@@H]2O` (stereo partly drawn) [Compound 3656], the IC50 is less than 1 nM.

For the molecule `CC(=O)O[C@@]12CO[C@@H]1C[C@H](O)[C@@]1(C)C(=O)[C@H](OC(=O)C3CC3)C3=C(C)[C@@H](OC(=O)[C@H](O)[C@@H](NC(=O)c4cccs4)c4ccco4)C[C@@](O)([C@@H](OC(=O)c4ccccc4)C12)C3(C)C` (stereo partly drawn) [Compound 3663], the IC50 is less than 1 nM.

As for `CCOC(=O)N[C@@H](c1ccco1)[C@@H](O)C(=O)O[C@H]1C[C@@]2(O)[C@@H](OC(=O)c3ccccc3)C3[C@](C)(C(=O)[C@H](OC(=O)C4CC4)C(=C1C)C2(C)C)[C@@H](O)C[C@H]1OC[C@@]31OC(C)=O` (stereo partly drawn) [Compound 3677], the IC50 was less than 1 nM.

For the molecule `CCCC(=O)O[C@H]1C(=O)[C@@]2(C)C([C@H](OC(=O)c3ccccc3)[C@]3(O)C[C@H](OC(=O)[C@H](O)[C@@H](NC(=O)c4ccco4)c4ccco4)C(C)=C1C3(C)C)[C@]1(OC(C)=O)CO[C@@H]1C[C@@H]2O` (stereo partly drawn) [Compound 3686], the IC50 is less than 1 nM.

Regarding `CCCC(=O)O[C@H]1C(=O)[C@@]2(C)C([C@H](OC(=O)c3ccccc3)[C@]3(O)C[C@H](OC(=O)[C@H](O)[C@@H](NC(=O)OCC)c4ccco4)C(C)=C1C3(C)C)[C@]1(OC(C)=O)CO[C@@H]1C[C@@H]2O` (stereo partly drawn) [Compound 3693], the IC50 was less than 1 nM.

For the molecule `CCC(=O)O[C@H]1C(=O)[C@@]2(C)C([C@H](OC(=O)c3ccccc3)[C@]3(O)C[C@H](OC(=O)[C@H](O)[C@@H](NC(=O)c4ccco4)c4ccco4)C(C)=C1C3(C)C)[C@]1(OC(C)=O)CO[C@@H]1C[C@@H]2O` (stereo partly drawn) [Compound 3818], the IC50 is less than 1 nM.

With `CC(=O)O[C@@]12CO[C@@H]1C[C@H](O)[C@@]1(C)C(=O)[C@H](OC(=O)C3CC3)C3=C(C)[C@@H](OC(=O)[C@H](O)[C@@H](NC(=O)OC(C)C)c4ccco4)C[C@@](O)([C@@H](OC(=O)c4ccccc4)C12)C3(C)C` (stereo partly drawn) [Compound 3853], the IC50 is less than 1 nM.
